From article PMC10895678 (Journal of Medicinal Chemistry, 2024)
In brackets after ≈: the same amount, converted by molar mass. Several values for one entry are separate records, joined by “and”; a condition that tells them apart may be missing. Equal values may be shown once. Read-outs that look alike come from different tables or passages of the source.

Key:
M. bovis BCG = test: microbe, parasite or virus in culture; format: cell-based; conditions: Mycobacterium tuberculosis variant bovis BCG, read-out: BCG MBC
[1] = Mouse PK, combined (cassette) dosing of BGAz-001–005; format: in vivo, KM mice; set-up: AUMC(0-t) / VRT(0-t) / λz: unit not given here; conditions: for MRT last: read-out: MRT(0-t); for MRT inf: read-out: MRT(0-∞); for Vd/F: read-out: Vz/F
Text: Methods for combined single dosing (BGAz001–005) and dosing of single compounds multiple times (BGAz004 and BGAz005) are described in detail in the Supporting Information (PK Data).
Report on PK Results of Combined Dosing with BGAz-001–005
1 Materials and instrument combined dosing
An MS2 Turnover type oscillator was purchased from IKA Work’s Guangzhou (China), and a 5415R ChromatographicanalyseswereconductedusinganAgilent1290InfinityIIhighperformanceliquidchromatography andAgilentTechnologies6470TripleQuadLC/MS.Propranolol(≥90%inpurity,internalstandard,IS)waspurchased fromtheSigmaChemicalCo.(China).Formicacid(HPLCgrade)andmethanol(HPLCgrade)werepurchasedfrom DIKMACo.(China).Allchemicalsandsolventswereanalyticalgrade.WaterwaspurifiedusingaMillipore(AK,USA) laboratoryultra-purewatersystem(0.2μmfilter).
KMmice,weighing25–35g(BeijingVitalRiverLaboratoryAnimalTechnologyCo.,Ltd.,China)wereutilisedforthe studies.The protocols were approved by the Animal Care and Use Committee, GIBH. Animals were maintained on standard animal chow and waterad libitum, in a climate-controlled room (23±1 °C 30–70% relative humidity, a minimumof tenexchangesof roomairperhouranda12hlight/darkcycle)foroneweekpriortoexperiments.
3 Pharmacokinetic studies
Compounds BGAz-001 ，BGAz-002 ，BGAz-003 ，BGAz-004 and BGAz-005 were dissolved mixed in a solution containing DMSO (2%),ethanol (4%), Cremophor EL (4%) and ddH2O (90%); Pharmacokinetic propertiesof KM (male) were determined following IV, PO and IP administration. Animals were randomly distributed into three experimentalgroups(n=4).ThePOgroupwasgivenmixedsolutionwith5mg/kgbygastricgavage.TheIVgroup was dosed with mixed solution 1mg/kg byinjection into the tail vein. The IP group was dosed with mixed solution 1mg/kg by intraperitoneal injection. After single administration, whole blood samples (100 μL) were obtained from the orbital venousplexus atthe followingtime pointsafter dosing:5, 15,30 minand 1,3, 5,8, 24hour (PO and IP groups) and at the following time points after dosing 2, 10, 30min and 1, 3, 5, 8,24 hour (IV group). Wholeblood samples were collected in heparinised tubes. The plasma fraction was immediately separated by centrifugation. The micewerehumanelyeuthanasiabycarbondioxide24hoursafterexperimentwithoutpain.
4 Plasma sample and brain sample analysis
4.1 Standard curve sample preparation
ThecompoundsweredissolvedinDMSO(2mg/mL)anddilutedwithtoseriesconcentration(methanol:H 2O,1:1,10 μL) and blank plasma (50 μL) were added to 1.5 mL tubes and vortexed for 3 min, then acetonitrile-containing internalstandard(150μL)wasaddedandvortexedforafurther5min,andsubsequentlyspuninacentrifugeat13000 […]
4.2 Plasma and preparation
Plasmasampleswerepreparedusingaproteinprecipitationmethod.Solution(10μL,methanolH 2O,1:1)andplasma samples(50μL)wereaddedto1.5mLtubesandvortexfor3min,thenacetonitrile-containinginternalstandard(150 μL)wasaddedandvortexfor5min,andsubsequentlyspuninacentrifugeat13000× gfor40minat4°C.
Aftercentrifugation,supernatant(100μL)wastransferto96wellplatesandanalysedbyLC-MS/MSusinganAgilent 1290InfinityIIHPLCandanAgilentTechnologies6470TripleQuadLC/MS.

[2] = IP 1 mg/kg, cassette, mean of animals
[3] = IV 1 mg/kg, cassette, mean of animals
[4] = PO 5 mg/kg, cassette, mean of animals
[5] = male, KM, mouse, plasma, IP 1 mg/kg, cassette
[6] = male, KM, mouse, plasma, IP 1 mg/kg, cassette, mean of animals
[7] = male, KM, mouse, plasma, IV 1 mg/kg, cassette
[8] = male, KM, mouse, plasma, IV 1 mg/kg, cassette, mean of animals
[9] = male, KM, mouse, plasma, PO 5 mg/kg, cassette
[10] = male, KM, mouse, plasma, PO 5 mg/kg, cassette, mean of animals

## FC(F)(F)Oc1ccc(C2CC(CN3CCCC3)N2Cc2ccccc2OC(F)(F)F)cc1 (stereo not shown) [BGAz-002]
M. bovis BCG
  MBC: 12 to 25 µM (≈ 5.69 to 11.9 µg/mL)
[1]; [2]
  AUC(0-t): 390.877 µg
  AUC(0-∞): 629.982 µg
  AUMC(0-t): 3917.162 **μg
  AUMC(0-∞): 17064.651 **μg
  CLz/F: 1.79 L/kg
  C_last: 8.556 µg
  R_AUC(t/∞): 67.725%
  VRT(0-t): 72.869 ^2
  VRT(0-∞): 649.236 ^2
  λz: 0.051 1/
[1]; IP 1 mg/kg, cassette, summary table
  AUC(0-∞): 629.982 µg·h
[1]; [3]
  AUC(0-t): 395.775 µg
  AUC(0-∞): 440.39 µg
  AUMC(0-t): 2604.325 **μg
  AUMC(0-∞): 4336.305 **μg
  CLz/F: 2.306 L/kg
  C_last: 3.185 µg
  R_AUC(t/∞): 89.5%
  VRT(0-t): 48.868 ^2
  VRT(0-∞): 164.25 ^2
  Vz/F: 28.224 L/kg
  λz: 0.099 1/
[1]; IV 1 mg/kg, cassette, summary table
  AUC(0-∞): 440.39 µg·h
[1]; PO 5 mg/kg vs IV 1 mg/kg, cassette
  BA: 57.59%
[1]; [4]
  AUC(0-t): 642.368 µg
  AUC(0-∞): 1268.031 µg
  AUMC(0-t): 6099.109 **μg
  AUMC(0-∞): 48726.538 **μg
  CLz/F: 11.484 L/kg
  C_last: 17.369 µg
  R_AUC(t/∞): 64%
  VRT(0-t): 48.138 ^2
  VRT(0-∞): 1193.792 ^2
  λz: 0.025 1/
[1]; PO 5 mg/kg, cassette, summary table
  AUC(0-∞): 1268.03 µg·h
[1]; male, KM, mouse, plasma, ip, 1 mg/kg, IP 1 mg/kg, cassette, mean of animals, read-out: Cmax
  Cmax: 40 ng/mL
[1]; male, KM, mouse, plasma, ip, 1 mg/kg, IP 1 mg/kg, cassette, mean of animals, read-out: Tmax
  Tmax: 0.167 h
[1]; male, KM, mouse, plasma, ip, 1 mg/kg, IP 1 mg/kg, cassette, summary table, read-out: Cmax
  Cmax: 40 ng/mL
[1]; male, KM, mouse, plasma, ip, 1 mg/kg, IP 1 mg/kg, cassette, summary table, read-out: T1/2 (converted)
  half-life: 16.1 h
[1]; male, KM, mouse, plasma, ip, 1 mg/kg, IP 1 mg/kg, cassette, summary table, read-out: Tmax
  Tmax: 0.167 h
[1]; male, KM, mouse, plasma, iv, 1 mg/kg, IV 1 mg/kg, cassette, mean of animals, read-out: Cmax
  Cmax: 189 ng/mL
[1]; male, KM, mouse, plasma, iv, 1 mg/kg, IV 1 mg/kg, cassette, mean of animals, read-out: Tmax
  Tmax: 0.033 h
[1]; male, KM, mouse, plasma, iv, 1 mg/kg, IV 1 mg/kg, cassette, summary table, read-out: Cmax
  Cmax: 189 ng/mL
[1]; male, KM, mouse, plasma, iv, 1 mg/kg, IV 1 mg/kg, cassette, summary table, read-out: T1/2 (converted)
  half-life: 8.35 h
[1]; male, KM, mouse, plasma, iv, 1 mg/kg, IV 1 mg/kg, cassette, summary table, read-out: Tmax
  Tmax: 0.033 h
[1]; male, KM, mouse, plasma, po, 5 mg/kg, 5 mg/kg PO, cassette dosing, read-out: AUC0-inf
  AUC(0-inf): 1270 ng·h/mL
[1]; male, KM, mouse, plasma, po, 5 mg/kg, 5 mg/kg PO, cassette dosing, read-out: Cmax (Mouse, P.O.)
  Cmax: 53.9 ng/mL
[1]; male, KM, mouse, plasma, po, 5 mg/kg, 5 mg/kg PO, cassette dosing, read-out: T1/2 (Mouse, P.O.) (converted)
  half-life: 24.9 h
[1]; male, KM, mouse, plasma, po, 5 mg/kg, 5 mg/kg PO, cassette dosing, read-out: Tmax (Mouse, P.O.)
  Tmax: 1.87 h
[1]; male, KM, mouse, plasma, po, 5 mg/kg, PO 5 mg/kg, cassette, mean of animals, read-out: Cmax
  Cmax: 53.9 ng/mL
[1]; male, KM, mouse, plasma, po, 5 mg/kg, PO 5 mg/kg, cassette, mean of animals, read-out: Tmax
  Tmax: 1.88 h
[1]; male, KM, mouse, plasma, po, 5 mg/kg, PO 5 mg/kg, cassette, summary table, read-out: Cmax
  Cmax: 53.9 ng/mL
[1]; male, KM, mouse, plasma, po, 5 mg/kg, PO 5 mg/kg, cassette, summary table, read-out: T1/2 (converted)
  half-life: 24.9 h
[1]; male, KM, mouse, plasma, po, 5 mg/kg, PO 5 mg/kg, cassette, summary table, read-out: Tmax
  Tmax: 1.88 h
[1]; [5]
  concentration at 0.083 h: 37.4 ng/mL and 80 nM
  concentration at 0.25 h: 80 nM and 38.8 ng/mL
  concentration at 0.5 h: 70 nM and 32.6 ng/mL
  concentration at 1 h: 50 nM and 25.8 ng/mL
  concentration at 3 h: 50 nM and 24 ng/mL
  concentration at 5 h: 40 nM and 17 ng/mL
  concentration at 8 h: 30 nM and 15 ng/mL
  concentration at 24 h: 30 nM and 12.4 ng/mL
[1]; [6]
  MRT last: 10.1 h
  MRT inf: 23.7 h
  Vd/F: 36.8 L/kg
[1]; male, KM, mouse, plasma, IV 1 mg/kg, cassette, 0.033 h
  concentration at 0.033 h: 189 ng/mL and 400 nM
[1]; male, KM, mouse, plasma, IV 1 mg/kg, cassette, 0.167 h
  concentration at 0.167 h: 210 nM and 98.9 ng/mL
[1]; [7]
  concentration at 0.5 h: 130 nM and 62.5 ng/mL
  concentration at 1 h: 100 nM and 45.6 ng/mL
  concentration at 3 h: 60 nM and 28.3 ng/mL
  concentration at 5 h: 40 nM and 18.3 ng/mL
  concentration at 8 h: 30 nM and 12.5 ng/mL
  concentration at 24 h: 10 nM and 6.16 ng/mL
[1]; [8]
  C0: 222 ng/mL
  MRT last: 6.46 h
  MRT inf: 9.9 h
[1]; [9]
  concentration at 0.083 h: 16.4 ng/mL and 30 nM
  concentration at 0.25 h: 50 nM and 25.1 ng/mL
  concentration at 0.5 h: 80 nM and 37.7 ng/mL
  concentration at 1 h: 100 nM and 49.3 ng/mL
  concentration at 3 h: 100 nM and 49.4 ng/mL
  concentration at 5 h: 80 nM and 40.1 ng/mL
  concentration at 8 h: 80 nM and 36.7 ng/mL
  concentration at 24 h: 50 nM and 22.9 ng/mL
[1]; [10]
  MRT last: 7.92 h
  MRT inf: 27.5 h
  Vd/F: 104 L/kg
